Data as given in patent US6677450B2, “Topoisomerase inhibitors” (Bristol-Myers Squibb Company, priority 2000, dated 2004).
Where two headings read alike, the source gives them in different places.

Columns and labels:
[1] = biological target: T1, purified human topoisomerase I (Homo sapiens, UniProt P11387); assay: Topoisomerase I activity (in vitro): compound-induced, topoisomerase I-mediated single strand breaks in PM2 DNA; format: biochemical; details: 30 minutes at 37° C., agarose gel densitometry, read-out: EC50 (median effective concentration for inducing topoisomerase I-mediated single strand breaks in DNA)
T1 construct: purchased Topogen
T1 sequence (P11387 1-765): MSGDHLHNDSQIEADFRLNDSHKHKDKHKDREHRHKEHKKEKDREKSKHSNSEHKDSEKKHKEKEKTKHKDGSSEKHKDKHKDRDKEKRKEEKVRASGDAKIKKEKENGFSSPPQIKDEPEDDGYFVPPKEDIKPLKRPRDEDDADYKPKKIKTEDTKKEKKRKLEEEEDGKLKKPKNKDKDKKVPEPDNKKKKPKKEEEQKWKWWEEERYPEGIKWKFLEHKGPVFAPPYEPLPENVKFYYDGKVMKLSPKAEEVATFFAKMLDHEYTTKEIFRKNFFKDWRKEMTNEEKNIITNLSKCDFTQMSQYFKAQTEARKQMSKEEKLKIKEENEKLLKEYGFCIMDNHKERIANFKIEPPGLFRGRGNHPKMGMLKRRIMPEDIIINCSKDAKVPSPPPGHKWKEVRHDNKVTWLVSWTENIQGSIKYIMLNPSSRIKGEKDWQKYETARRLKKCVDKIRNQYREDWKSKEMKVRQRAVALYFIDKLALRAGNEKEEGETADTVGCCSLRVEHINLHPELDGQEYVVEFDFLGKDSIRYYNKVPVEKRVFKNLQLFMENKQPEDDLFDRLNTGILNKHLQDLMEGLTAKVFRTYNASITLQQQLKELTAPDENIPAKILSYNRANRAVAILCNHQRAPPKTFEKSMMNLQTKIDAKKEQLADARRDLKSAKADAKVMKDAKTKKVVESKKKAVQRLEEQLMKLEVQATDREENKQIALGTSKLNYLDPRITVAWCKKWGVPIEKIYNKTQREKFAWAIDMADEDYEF
Protocol: Topoisomerase I Activity (In Vitro)
Topoisomerase I activity was measured as described below: The procedure for assaying compound-induced, topoisomerase I-mediated single strand breaks in DNA was essentially that described by Hsiang, et al., (J. Biol Chem. 1985, 260, 14873-14878). Samples dissolved in 100% DMSO as either 10 μM or 10 mg/ml solutions, unless otherwise stated, were diluted in Tris-EDTA buffer. Marine bacteriophage PM2 DNA (Boehringer Mannheim) was also diluted in Tris-EDTA buffer to a concentration of 0.02 μg/μl. Different dilutions of the compound being evaluated were mixed with diluted DNA and this mixture was added to 1000 unit (one unit of enzyme activity is defined as the amount capable of relaxing 100 ng of supercoiled DNA in approximately 30 minutes at 37° C.) aliquots of purified human topoisomerase I (Topogen) in 2× reaction buffer to start the reaction. The compound-DNA-enzyme mixture was incubated for 30 minutes at 37° C. before stopping the reaction with warm stop buffer containing sodium dodecyl sulfate and proteinase K (Sigma). These mixtures were allowed to incubate at 37° C. for another 10 minutes, at which time the mixtures were removed from the waterbath and extracted with a 24:1 mixture of chloroform/isoamyl alcohol. Following centrifugation, aliquots of the aqueous phases were placed in wells of a 0.9% agarose (SeaKem) gel in Tris-borate buffer containing 0.5 μg/ml of ethidium bromide and subjected to electrophoresis for 15 hours to separate the different topological isomers and nicked and broken DNAs. After destaining the gel in water, the ethidium bromide stained DNA reaction products were visualized by exposing the gel to UV irradiation. Negatives of the photographs of the irradiated gels were scanned with a densitometer and areas under the peaks were calculated in order to obtain percent single strand DNA break formation for each sample. A median effective concentration (EC50) was obtained for each compound by interpolation between points of the resulting dose-effect curve which defines the potency of the compound for its effect in inducing topoisomerase I-mediated single strand breaks in DNA.
The topoisomerase I activity for certain compounds of the present invention is shown below in Table I.

[2] = system: murine P388 cell line; assay: In vitro cell-based cytotoxicity: proliferation inhibition, XTT tetrazolium assay; details: P388 cells, 72 h at 37° C., XTT absorbance at 450 nm, read-out: IC50 (drug concentration required to inhibit cell proliferation to 50% of untreated control cells)
Protocol: In Vitro Cell-Based Cytotoxicity Activity
The proliferation inhibition activity against murine P388 cell line was measured as follows. Evaluation of a soluble tetrazolium/formazan assay for cell growth and drug sensitivity in culture, using human and other tumor cell lines, was done according to the procedure described in Cancer Res. 1988, 48, 4827-4833. Cells were plated at 4000 cells/well in 96 well microtiter plates and 24 h later drugs were added and serially diluted. The cells were incubated at 37° C. for 72 h, at which time a tetrazolium dye, XTT, containing phenazine methosulfate was added. A dehydrogenase enzyme in live cells reduced the XTT to a form that absorbs light at 450 nm, which could be quantitated spectrophotometrically. The greater the absorbance the greater the number of live cells. The results are expressed as an IC50, which is the drug concentration required to inhibit cell proliferation (i.e., absorbance at 450 nm) to 50% of that of untreated control cells.

O=C1NC(=O)c2c1c1c3cc(F)c(F)cc3n3c1c1c2c2cc(F)c(F)cc2n1C1OC(C3)C(F)(F)C(O)C1O [Example 9, 2,3,9,10-Tetrafluoro-12,13-[1,6-(4-deoxy-4,4-difluoro-β-D-glucopyranosyl)]-6,7,12,13-tetrahydro(5H)indolo[2,3-a]pyrrolo[3,4-c]carbazole-5,7-dione]
EC50 [1]: > 100000 nM | IC50 ([2]; Mus musculus): 21 nM

O=C1NC(=O)c2c1c1c3cc(F)c(F)cc3n3c1c1c2c2cc(F)c(F)cc2n1[C@@H]1OC(CO)[C@H]3C(O)C1O (stereo partly drawn) [Example 13, 2,3,9,10-Tetrafluoro-12,13-(1,4-β-D-galactopyranosyl)-6,7,12,13-tetrahydro(5H)indolo[2,3-a]pyrrolo[3,4-c]carbazole-5,7-dione]
EC50 [1]: 8200 nM | IC50 ([2]; Mus musculus): 2800 nM

O=C1NC(=O)c2c1c1c3cc(F)c(F)cc3n3c1c1c2c2cc(F)c(F)cc2n1C1OC(C3)C(F)C(O)C1O [Example 8, 2,3,9,10-Tetrafluoro-12,13-[1,6-(4-deoxy-4-fluoro-β-D-glucopyranosyl)]-6,7,12,13-tetrahydro(5H)indolo[2,3-a]pyrrolo[3,4-c]carbazole-5,7-dione]
EC50 [1]: 620 nM | IC50 ([2]; Mus musculus): 26 nM

O=C1NC(=O)c2c1c1c3cc(F)c(F)cc3n3c1c1c2c2cc(F)c(F)cc2n1C1OC(C3)C(O)CC1O [Example 5, 2,3,9,10-Tetrafluoro-12,13-[1,6-(3-deoxy-β-D-glucopyranosyl)]-6,7,12,13-tetrahydro(5H)indolo[2,3-a]pyrrolo[3,4-c]carbazole-5,7-dione]
EC50 [1]: 680 nM | IC50 ([2]; Mus musculus): 23 nM

C[C@]12O[C@H]([C@H](O)[C@@H](O)[C@@H]1O)n1c3cc(F)c(F)cc3c3c4c(c5c6cc(F)c(F)cc6n2c5c31)C(=O)NC4=O [Example 21]
EC50 [1]: 290 nM | IC50 ([2]; Mus musculus): 140 nM

O=C1NC(=O)c2c1c1c3cc(F)ccc3n3c1c1c2c2cc(F)ccc2n1C1OC(C3)C(O)C(O)C1O (centres unmarked) [Example 27]
EC50 [1]: 36 nM | IC50 ([2]; Mus musculus): 51.1 nM

O=C1NC(=O)c2c1c1c3ccc(F)cc3n3c1c1c2c2ccc(F)cc2n1[C@@H]1O[C@H](CO)[C@@H](O)[C@H](O)[C@@H]13 [Example 24, 2,10-Difluoro-12,13-[1,2-β-D-glucopyranosyl]-6,7,12,13-tetrahydro(5H)-indolo-[2,3-a]pyrrolo[3,4-c]carbazole-5,7-dione]
EC50 [1]: > 100000 nM | IC50 ([2]; Mus musculus): 1150 nM | melting point: > 300 °C

O=C1NC(=O)c2c1c1c3cc(F)ccc3n3c1c1c2c2cc(F)ccc2n1C1OC(C3)C(F)C(O)C1O [Example 26, 3,9-Difluoro-12,13-[1,6-(4-deoxy-4-fluoro-β-D-glucopyranosyl)]-6,7,12,13-tetrahydro(5H)indolo[2,3-a]pyrrolo[3,4-c]carbazole-5,7-dione]
EC50 [1]: 28 nM | IC50 ([2]; Mus musculus): 3 nM

O=C1NC(=O)c2c1c1c3cc(F)c(F)cc3n3c1c1c2c2cc(F)c(F)cc2n1C1OC(C3)C(O)C(F)C1O [Example 6, 2,3,9,10-Tetrafluoro-12,13-[1,6-(3-deoxy-3-fluoro-β-D-glucopyranosyl)]-6,7,12,13-tetrahydro(5H)indolo[2,3-a]pyrrolo[3,4-c]carbazole-5,7-dione]
EC50 [1]: > 100000 nM | IC50 ([2]; Mus musculus): 7700 nM

O=C1NC(=O)c2c1c1c3ccc(F)cc3n3c1c1c2c2ccc(F)cc2n1C1OC(C3)C(O)C(O)C1O [Example 10, 2,10-Difluoro-12,13-[1,6-β-D-glucopyranosyl]-6,7,12,13-tetrahydro(5H)indolo-[2,3-a]pyrrolo[3,4-c]carbazole-5,7-dione]
EC50 [1]: 450 nM | IC50 ([2]; Mus musculus): 130 nM | melting point: > 300 °C

O=C1NC(=O)c2c1c1c3cc(F)ccc3n3c1c1c2c2cc(F)ccc2n1[C@@H]1O[C@H](CO)[C@H](O)[C@H](O)[C@@H]13 [Example 25, 3,9-Difluoro-12,13-[1,2-β-D-galactopyranosyl]-6,7,12,13-tetrahydro(5H)-indolo-[2,3-a]pyrrolo[3,4-c]carbazole-5,7-dione]
EC50 [1]: 110 nM | IC50 ([2]; Mus musculus): 14.2 nM

O=C1NC(=O)c2c1c1c3cc(F)c(F)cc3n3c1c1c2c2cc(F)c(F)cc2n1[C@@]1(CO)O[C@@H]3[C@H](O)[C@@H](O)[C@@H]1O [Example 22, 2,3,9,10-Tetrafluoro-12,13-(1,5-β-D-glucopyranosyl)-6,7,12,13-tetrahydro(5H)indolo[2,3-a]pyrrolo[3,4-c]carbazole-5,7-dione]
EC50 [1]: 320 nM | IC50 ([2]; Mus musculus): 86 nM

O=C1NC(=O)c2c1c1c3cc(F)c(F)cc3n3c1c1c2c2cc(F)c(F)cc2n1C1OC(CC(O)C1O)C3 [Example 4, 2,3,9,10-Tetrafluoro-12,13-[1,6-(4-deoxy-β-D-glucopyranosyl)]-6,7,12,13-tetrahydro(5H)indolo[2,3-a]pyrrolo[3,4-c]carbazole-5,7-dione]
EC50 [1]: 5600 nM | IC50 ([2]; Mus musculus): 70 nM

O=C1NC(=O)c2c1c1c3cc(F)c(F)cc3n3c1c1c2c2cc(F)c(F)cc2n1[C@@H]1OC(CF)[C@H]3C(O)C1O (stereo partly drawn) [Example 16, 2,3,9,10-Tetrafluoro-12,13-[1,4-(6-deoxy-6-fluoro-β-D-galactopyranosyl)]-6,7,12,13-tetrahydro(5H)indolo[2,3-a]pyrrolo[3,4-c]carbazole-5,7-dione]
EC50 [1]: 2900 nM | IC50 ([2]; Mus musculus): 3300 nM

COC1C2Cn3c4c(Cl)cccc4c4c5c(c6c7cccc(Cl)c7n(c6c43)C(O2)C(O)C1O)C(=O)NC5=O [Example 7, 1,11-Dichloro-12,13-[1,6-(4-O-methyl-β-D-glucopyranosyl)]-6,7,12,13-tetrahydro(5H)indolo[2,3-a]pyrrolo[3,4-c]carbazole-5,7-dione]
EC50 [1]: > 100000 nM | IC50 ([2]; Mus musculus): 460 nM

O=C1NC(=O)c2c1c1c3cc(F)c(F)cc3n3c1c1c2c2cc(F)c(F)cc2n1C1OC(C3)C(O)C(O)C1O [Example 3, 2,3,9,10-Tetrafluoro-12,13-(1,6-β-D-glucopyranosyl)-6,7,12,13-tetrahydro(5H)indolo[2,3-a]pyrrolo[3,4-c]carbazole-5,7-dione]
EC50 [1]: 350 nM | IC50 ([2]; Mus musculus): 50 nM

2,3,9,10-Tetrafluoro-12,13-[1,5-(6-deoxy-β-D-glucopyranosyl)]-6,7,12,13-tetrahydro(5H)indolo[2,3-a]pyrrolo[3,4-c]carbazole-5-one and 2,3,9,10-Tetrafluoro-12,13-[1,5-(6-deoxy-β-D-glucopyranosyl)]-6,7,12,13-tetrahydro(5H)-indolo[2,3-a]pyrrolo[3,4-c]carbazole-7-one [Example 23]
EC50 [1]: 2100 nM | IC50 [2]: 240 nM

O=C1NC(=O)c2c1c1c3cc(F)ccc3n3c1c1c2c2cc(F)ccc2n1[C@@H]1O[C@H](CO)[C@@H](O)[C@H](O)[C@@H]13 [Example 28, 3,9-Difluoro-12,13-[1,2-β-D-glucopyranosyl]-6,7,12,13-tetrahydro(5H)-indolo-[2,3-a]pyrrolo[3,4-c]carbazole-5,7-dione]
EC50 [1]: 120 nM | IC50 ([2]; Mus musculus): 347 nM
